“And” between values parts separate entries of the source, which are not always exact repeats. Equal entries are not always repeated. “Also recorded” adds a separate entry of the source.

What all share (assay type): in vivo
The test system of series [1] is control mice. Put plainly: Radiant tail flick antinociception, control (not pretreated) mice. As to the method:
(§1) Compounds were dissolved in 10% DMSO and then diluted to less than 1% DMSO in the test solutions. […] Compounds were administered in a 5-μl volume in conscious mice, either i.c.v. (Haley T J & McCormick W G, Br J Pharmacol Chemother, 1957, 12(1), 12-15) or i.t. (Hylden J L K & Wilcox G L, Eur. J. Pharmacol., 1980, 67(2-3), 313-316). Peak times were determined by comparing the percent maximal possible effect (% MPE) at 5, 10, 20 and 60 minutes after injection.
(§2) The tail flick assay is used first to test for antinociception as described by D'Amour and Smith (D'AMOUR FE & SMITH DL (1941) J. Pharmacol. Exp. Ther. 72(1):74-79) and modified by Dewey et al. (Dewey W L, Harris L S, Howes J F, & Nuite JA (1970) J. Pharmacol. Exp. Ther. 175(2):435-442). For the measurement of the tail-flick latency, mice are wrapped in a light cloth and held gently in one hand with the tail positioned in the apparatus (Tail Flick Analgesia Meter, Columbus Instruments, Columbus, Ohio) for radiant heat stimulus. The tail-flick response is elicited by applying radiant heat to the dorsal side of the tail. The intensity of the heat is set so that the mouse flicks its tail within 2 to 3 seconds. The test latency is measured before drug treatment (control) and again after the drug treatment (test) at the peak time of the compound; a 10 second maximum cut-off time is used to prevent damage to the tail. Antinociception is quantified according to the Harris L S & Pierson A K, J. Pharmacol. Exp. Ther., 1964, 143(2):141-148, as the percent maximal possible effect (% MPE), which is calculated as: % MPE=(Test−Control/10−Control)×100.
(§3) At least three groups of four to ten mice are used for each dose response curve. ED50 values with 95% confidence intervals (C.I.) are computed with GraphPad Prism 4 by using nonlinear regression methods.

For series [2], the system named is LPS pretreated mice. Briefly: Radiant tail flick antinociception, LPS pretreated mice. Here is the method:
as §1
The first group mice were pretreated with lipopolysaccaride (LPS, 1 mg/kg, i.p. from Escherichia coli 0111:B4; Sigma-Aldrich, St. Louis, Mo.) for 24 hours before testing for antinociception of compounds 2-6 (Seo Y-J, et al., Pharmacol., Biochem. Behav., 2008, 91, 121-127). This group was compared to a group without pretreatment.
as §2, §3

Series [3] deals with control mice. Briefly: Acute (24 hour) tolerance, tail flick, control mice. As to conditions: controls. Here is the method:
(§4) Acute tolerance utilizing the radiant tail flick assay was measured by comparing the ED80-90 dose on day 1 to the same dose measured 24 hours later on the same mouse. For the LPS pretreated mice, no additional LPS was given to the mice for the acute tolerance test. […] However, the effect was less robust 72 hours after the initial LPS injection. Thus confirming that the acute tolerance test was accurate for the LPS pretreated mice.

The test system of series [4] is LPS pretreated mice. Briefly: Acute (24 hour) tolerance, tail flick, LPS pretreated mice. As to conditions: for Tolerance: 24 hours. As to the method: as §4
For series [5], the system named is C3H mice with bone cancer. Put plainly: von Frey mechanical hyperalgesia, bone cancer (fibrosarcoma) mice. As to the method: The mouse hind paw model of bone cancer was the third model of pain (Wacnik P W, et al., Pain Research & Management, 2000, 16, 615-637; and Wacnik P W, et al., J Neurosci, 2001, 21(23), 9355-9366). Cell Culture: National Collection of Type Cultures (NCTC) clone 2472 fibrosarcoma cells, originally derived from a connective tissue tumor in a C3H mouse, were obtained from the American Type Cell Culture Collection (Rockville, Md.). Cells were grown and maintained in accordance with standard cell culturing techniques. NCTC cells were grown to 80-90% confluence in 75 cm^2 flasks (Corning, Lowell, Mass.) in Dulbecco's Modification of Eagles Medium (Invitrogen, Carlsbad, Calif.) fortified with 10% Horse Serum and sodium bicarbonate. Cell cultures were housed in a water-jacketed incubator with 5% carbon dioxide at 37° C.
Cells were prepared for implantation by first pouring off the culture medium and washing with phosphate-buffered saline (PBS). Trypsin was added to flask and placed in incubator for 3 minutes. Upon detachment, cells were suspended in an ample amount of culture medium to terminate enzymatic activity and centrifuged for 10 min at 1000 g. Fibrosarcoma cells were re-suspended in a known amount of PBS for counting, quantified on a hemacytometer, pelleted and re-suspended in PBS. Fibrosarcoma cells were again re-suspended to a final concentration of 2×10^5 cells in 20 μl. Initially, animals were anesthetized in a plexi-glass chamber using 3% isoflurane in 3 L/min oxygen. Once each mouse was completely anesthetized, a maintenance rate of 2% isoflurane in 1.5 L/min oxygen was maintained during the short implantation procedure. Tumor cells were manually injected by boring into the calcaneus bone using a 29½ gauge needle connected to a sterile 0.3 ml insulin syringe as previously described (19). Following injection, mice were allowed to recover in cages on a heating pad. Animals showing any signs of dysfunction (e.g. problems with ambulation, lethargy or excessive bleeding) or distress where euthanized according to CO2 guidelines.
C3H mice were was placed under a clean glass cup on a wire mesh grid and allowed to acclimate for thirty minutes. Mechanical hypersensitivity was tested using a von Frey filament #3.61 (which produces a force of […]) to the plantar surface of both the left and right hind paw with enough force to cause it to bow slightly. Starting with the right hind paw, the number of positive responses out of a total of 10 applications was recorded followed by the left hind paw. Positive response was indicated by a sharp withdrawal or flinching behavior of the paw. Baseline von Frey measurements were obtained prior to treatment with CFA, tumor and saline controls. […] Subsequent measurements were taken at various time points after intrathecal (i.t.) injection of test compounds on days 3, 7, 10, 14, 17, and 21. % MPE was calculated ((Time-point value−Day# baseline)/(Day 0 baseline−day# baseline))*100 (Smeester B A, Al-Gizawiy M, & Beitz A J (2012) Evidence-Based Complementary and Alternative Medicine 2012:16). Animals with saline injection served as controls for tumor cell implantation and tumor-induced nociception. Behavioral assessments were conducted during the light cycle at approximately the same time each day. The investigator performing the von Frey testing was blinded to the animal and compound injected.
A well-established rodent hind paw model of bone cancer pain (Wacnik P W, et al., J Neurosci. 2001, 21(23), 9355-66) was to examine the effects of representative bivalent ligands on tumor-induced nociception. The inbred C3H/He line is syngeneic to the fibrosarcoma cells used in these experiments and allows these cells to grow tumors without rejection. Male C3H mice were used for all experiments. Animals were maintained on a 12 hour light/dark cycle with food and water ad libitum.
Cells were prepared for implantation by first pouring off the culture medium and washing with phosphate-buffered saline (PBS). […]

As to `Cc1cccc(C#Cc2cccc(OCCNC(=O)COCC(=O)NCCCCCNC(=O)COCC(=O)N[C@H]3CC[C@@]4(O)C5Cc6ccc(O)c7c6[C@@]4(CCN5C)[C@H]3O7)c2)n1` [Compound 4c, N-((4aS,7S,7aR,12bS)-4a,9-dihydroxy-3-methyl-2,3,4,4a,5,6,7,7a-octahydro-1H-4,12-methanobenzofuro[3,2-e]isoquinolin-7-yl)-2-((1-(3-((6-methylpyridin-2-yl)ethynyl)phenoxy)-4,8,16-trioxo-6-oxa-3,9,15-triazaheptadecan-17-yl)oxy)acetamide], the agonist character result in series [1] (control mice, i.c.v.) is listed as “partial agonist”. Further, in series [1] (controls, i.c.v., 250 pmol/mouse), the “% MPE” value turned out to be 71 ± 10% MPE. Further, the “ED50 (CI) i.t.” value in series [1] (controls, i.t., tail flick) was 38.70 pmol/mouse; in series [2] (LPS pretreated (1 mg/kg 24 hours i.p.), i.t.) it was < 9 fmol/mouse and 9 fmol/mouse and 8.83 fmol/mouse. Moreover, the “ED50 (CI) i.c.v.” value in series [2] (LPS pretreated (1 mg/kg 24 hours i.p.), i.c.v.) worked out at 374.9 pmol/mouse. The antinociception in series [2] (LPS pretreated, tail flick, dose of the acute tolerance test) was found to be 97%. The Tolerance entry in series [3] (i.c.v.) is listed as “No Tolerance”; in series [3] (i.t.), “No Tolerance”; in series [4] (i.c.v.), 24 hour tolerance; in series [4] (i.t.) it was “without tolerance; also recorded: No Tolerance”; in series [5] (bone cancer mice, i.t.), “without tolerance; also recorded: absence of tolerance”. Also, the “% MPE remaining in 24 hour tolerance test” value in series [4] (i.c.v., 24 hour) is “Still was 40% MPE”. Also, the “duration of significant antinociception” value in series [5] (bone cancer, PID 21, 1 nmol i.t.) is 12 h. Besides, the duration of antinociception in series [5] (bone cancer, PID 21, single 10 nmol i.t.) is 24 h and > 24 h. Moreover, the ED50 i.t. in series [5] (bone cancer, day 21, i.t.) stood at 0.01 fmol/mouse. Further, the “antinociception in tumor-bearing mice” value in series [5] (bone cancer, i.t., beginning on PID 3) is recorded as “potent antinociception”.

These data come from patent publication US9981043B2, “Analgesic conjugates” (priority 2013, dated 2018).
